Experimental data reported in paper PMC6353898, “A Rational Approach for Creating Peptides Mimicking Antibody Binding” (Scientific Reports, 2019).
Like-named read-outs stand apart in the source and are kept apart here. Square brackets hold non-standard residues; d marks the D form. Ends that are not written are not given here. Peptide text beside a SMILES is read from it. * marks the point of attachment. Dolaproine = CO[C@@H]([C@@H]1CCCN1)[C@@H](C)C(=O)O; Dil = CC[C@H](C)[C@H](NC)[C@@H](CC(=O)O)OC; X1 = C[C@@H](N*)[C@@H](O)c1ccccc1; NMeV = CN[C@H](C(=O)O)C(C)C

What was measured:
[1] = target: EGFR recombinant human protein (Homo sapiens, UniProt P00533); experiment: Surface plasmon resonance, EGFR as immobilized surface; format: binding; details: SPR, 25 °C, PBS with 0.01% Tween 20 pH 7.4
Method: All experiments were carried out at 25 °C.

HEK 293 cells = experiment: In vitro cytotoxicity (SRB), HEK 293; format: cell-based, human
Method: (§1) Cells were cultured to 80% confluency in T75 culture flasks using DMEM as growth medium, respectively. The cells were seeded onto 96 well plates and grown for 24 h to reach 50% confluency.
(§2) At the end of the incubation period, the cells were fixed using 10% trichloroacetic acid, followed by washing with distilled water and drying. The cellular proteins were stained using 50 μL of 0.4% Sulforhodamine B (SRB) in 1% acetic acid. Unbound SRB was washed with 1% acetic acid and the plates were dried overnight. The cell bound SRB was then solubilized using 200 μL of 10 mM unbuffered tris base solution. SRB absorbance was measured at 560 nm wavelength using a plate reader. The percent viabilities of cells were plotted as a function of log concentration and data was analyzed in GraphPad Prism Version 5.0 software (GraphPad Software Inc, CA, USA) using nonlinear-regression curve fit (variable slope four parameter equation).

A431 cells = experiment: In vitro cytotoxicity (SRB), A431; format: cell-based
Method: as §1, §2

MDA MB 468 cells = experiment: In vitro cytotoxicity (SRB), MDA MB 468; format: cell-based, human
Method: as §1, §2

[2] = target: bovine serum albumin (BSA) (Bos taurus, UniProt P02769); details: pH 7.4
Chain of bovine serum albumin (BSA) (P02769 25-607): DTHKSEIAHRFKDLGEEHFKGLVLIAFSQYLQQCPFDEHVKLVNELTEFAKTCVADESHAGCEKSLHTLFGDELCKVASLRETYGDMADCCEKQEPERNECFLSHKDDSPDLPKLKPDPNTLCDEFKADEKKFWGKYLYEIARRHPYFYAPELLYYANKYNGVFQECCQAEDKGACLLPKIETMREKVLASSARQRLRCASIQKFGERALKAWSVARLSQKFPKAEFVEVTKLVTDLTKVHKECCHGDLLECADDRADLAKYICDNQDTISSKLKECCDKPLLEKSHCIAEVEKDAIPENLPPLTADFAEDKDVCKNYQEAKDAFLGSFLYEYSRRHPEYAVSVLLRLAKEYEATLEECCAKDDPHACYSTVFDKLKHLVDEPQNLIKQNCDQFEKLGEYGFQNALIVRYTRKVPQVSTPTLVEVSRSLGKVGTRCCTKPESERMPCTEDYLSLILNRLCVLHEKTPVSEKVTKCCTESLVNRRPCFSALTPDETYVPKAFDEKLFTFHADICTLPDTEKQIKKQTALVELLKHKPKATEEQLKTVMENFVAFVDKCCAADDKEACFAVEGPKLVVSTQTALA
Method: Surface plasmon resonance (SPR) studies were conducted using the Dual Channel SPR Spectrometer SPR7000DC (Reichert Technologies, New York, USA) to determine the binding affinity of peptides to EGFR protein. All experiments were carried out at 25 °C. Phosphate buffer saline (PBS) with 0.01% Tween 20 (pH7.4) was filtered and thoroughly degassed before use. EGFR (20 µg/mL) recombinant human protein and bovine serum albumin (BSA 20 µg/mL) were covalently attached to the left channel of 500,000 Da carboxymethylated dextran sensor chips using 1-ethyl-3-(3-dimethylaminopropyl)-carbodiimide (EDC) and N-hydroxysuccinimide (NHS) chemistry. The chips were then blocked by passing ethanolamine for 8 minutes at a rate of 10 µL/min.
All peptides were injected as soluble analytes in PBS with 0.01% Tween 20 at different concentrations with an injection speed at 15 µL/min. […] The bound surface was regenerated by sequential injections of 10 mM glycine in PBS (pH 2.5).
The sensorgrams from SPR were globally treated using Scrubber 2 software (BioLogic Software Pty Ltd, Australia), and kinetic constants kon and koff were determined by global fitting analyses of the titration curves using the 1:1 Lagmurian interaction model considering the mass transport. The equilibrium dissociation constant (KD) was calculated from the koff/kon ratio.

Chain of EGFR recombinant human protein (P00533 25-645 limits assumed): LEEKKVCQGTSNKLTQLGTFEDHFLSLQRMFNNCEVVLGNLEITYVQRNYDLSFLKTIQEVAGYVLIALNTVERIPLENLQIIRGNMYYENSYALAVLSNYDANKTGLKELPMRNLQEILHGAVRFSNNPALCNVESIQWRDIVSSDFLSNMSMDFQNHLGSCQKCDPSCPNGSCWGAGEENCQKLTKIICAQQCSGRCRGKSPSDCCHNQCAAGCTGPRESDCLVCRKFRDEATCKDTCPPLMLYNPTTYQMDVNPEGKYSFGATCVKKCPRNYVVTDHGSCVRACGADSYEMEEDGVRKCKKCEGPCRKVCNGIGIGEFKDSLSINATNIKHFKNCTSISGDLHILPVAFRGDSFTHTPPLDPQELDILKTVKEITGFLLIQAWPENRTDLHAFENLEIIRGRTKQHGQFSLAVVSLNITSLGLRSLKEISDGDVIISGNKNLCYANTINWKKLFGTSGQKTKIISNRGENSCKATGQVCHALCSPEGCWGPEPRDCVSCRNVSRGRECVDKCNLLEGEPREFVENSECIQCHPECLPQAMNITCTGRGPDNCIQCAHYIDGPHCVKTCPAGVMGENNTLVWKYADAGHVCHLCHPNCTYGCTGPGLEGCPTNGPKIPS

With SGEWAYDGYEPNFG [Pep25] as the compound, how does the “KD EGFR / binding to EGFR, no value” [1] read?
The value was “did not bind”.

CC[C@H](C)[C@@H]([C@@H](CC(=O)N1CCC[C@H]1[C@H](OC)[C@@H](C)C(=O)N[C@H](C)[C@@H](O)c1ccccc1)OC)N(C)C(=O)[C@@H](NC(=O)[C@@H](NC)C(C)C)C(C)C [MMAE, Monomethyl Auristatin E, reference compound] (H-[NMeV]V[Dil][Dolaproine]-X1) was tested. Which IC50 (HEK 293 cells; SRB, 72 hours at 37 °C, 0.00001 to 10000 nM, read-out: IC50 (HEK 293)) did it give?
The IC50 was 0.0626 nM.

What about the IC50 (A431 cells; SRB, 72 hours at 37 °C, 0.00001 to 10000 nM, read-out: IC50 (A431)) of the same compound?
The IC50 was 0.0246 nM.

And the IC50 (MDA MB 468 cells; SRB, 72 hours at 37 °C, 0.00001 to 10000 nM, read-out: IC50 (MDA MB 468))?
Its IC50 is 0.0117 nM.

With WSGENGPGFYDYEA [Pep11] as the compound, how does the IC50 (HEK 293 cells; 72 h) read?
The IC50 was 1040 nM.

And the IC50 (A431 cells; 72 h)?
Its IC50 is 388 nM.

And the “KD BSA / binding to BSA, no value” [2]?
The value was “did not show binding”.

And the IC50 (MDA MB 468 cells; 72 h)?
Its IC50 is 420 nM.
